According to PubChem BioAssay (NCI):
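1) Cells in 96-well plates. 2) Compound, 48 h, 5 concentrations. 3) Linear interpolation between surrounding doses. 4) Unreached endpoint = highest concentration. GI50 = concentration required for 50% inhibition of growth. TGI marks complete inhibition of growth.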

Legend:
Assay in all cases: NCI-60 cell line screen, 48 h
[1] = system: M14 melanoma
[2] = system: OVCAR-3 ovarian
[3] = system: UACC-62 melanoma
[4] = system: BT-549 breast
[5] = system: LOX IMVI melanoma
[6] = system: HL-60(TB) leukemia
[7] = system: NCI-H460 lung
[8] = system: MALME-3M melanoma
[9] = system: KM12 colon
[10] = system: SR leukemia

| SMILES | GI50 [1] | TGI [1] | GI50 [2] | TGI [2] | GI50 [3] | TGI [3] | GI50 [4] | TGI [4] | GI50 [5] | TGI [5] | GI50 [6] | TGI [6] | GI50 [7] | TGI [7] | GI50 [8] | TGI [8] | GI50 [9] | TGI [9] | TGI [10] | GI50 [10] |
| --- | --- | --- | --- | --- | --- | --- | --- | --- | --- | --- | --- | --- | --- | --- | --- | --- | --- | --- | --- | --- |
| CSc1ccc(-c2cc(-c3ccc(NC(=O)CCCN4CCCC4)cc3)nc(-c3ccc(NC(=O)CCCN4CCCC4)cc3)c2)cc1 | 4.23 µM | 17.4 µM | 3.97 µM | 14.6 µM | 11.9 µM | 32.4 µM | 2.21 µM | 5.49 µM | 2.01 µM | 4.18 µM | 6.54 µM | 23.5 µM | 1.81 µM | 3.28 µM | 14 µM | 42.7 µM | 1.87 µM | 3.3 µM | – | – |
| Cc1[nH]c(C(=O)Nc2ccc(C(=O)N3CCNCC3)cc2OC(C)C)c(Cl)c1Cl | 1.94 µM | 3.57 µM | 2.19 µM | 4.62 µM | 1.8 µM | 3.38 µM | 14.3 µM | 29 µM | 1.77 µM | 3.25 µM | 2.21 µM | 4.44 µM | 1.88 µM | 3.44 µM | 1.59 µM | 3.05 µM | 1.84 µM | 3.46 µM | – | – |
| N=S(=O)(c1ccccc1)c1ccccc1[N+](=O)[O-] (stereo unspecified) | – | > 100 µM | – | > 100 µM | – | > 100 µM | – | – | – | – | – | > 100 µM | – | > 100 µM | – | > 100 µM | – | > 100 µM | > 100 µM | – |
| O=S1(=O)N(Cc2ccccc2)[C@@H](Cc2ccccc2)C2O[C@H]2[C@H](Cc2ccccc2)N1Cc1ccccc1 (stereo partly specified) | > 7.5 µM | > 7.5 µM | 4.03 µM | > 7.5 µM | 6.75 µM | > 7.5 µM | 4.09 µM | > 7.5 µM | 5.38 µM | > 7.5 µM | 4.75 µM | > 7.5 µM | 2.53 µM | > 7.5 µM | > 7.5 µM | > 7.5 µM | 7.19 µM | > 7.5 µM | – | – |
| COc1ccc(C(O)c2cc3c(N)c(C(=O)Nc4cccc(Cl)c4C)sc3nc2C)cc1 (stereo unspecified) | 0.872 µM | 1.78 µM | 0.814 µM | 1.79 µM | 0.896 µM | 1.67 µM | 0.888 µM | 1.77 µM | 0.838 µM | 1.55 µM | 0.877 µM | 2.14 µM | 0.834 µM | 1.73 µM | 0.809 µM | 1.51 µM | 0.865 µM | 1.68 µM | – | – |
| O=c1[nH]c(-c2ccccc2)nc2ccc(Cl)cc12 | – | – | – | > 100 µM | – | – | – | – | – | – | – | – | – | – | – | > 100 µM | – | > 100 µM | > 100 µM | – |
| C=C1C(=O)O[C@H]2[C@H]1CC/C(CNC(=O)/C=C/c1cccc(OC)c1)=C\CC[C@@]1(C)O[C@@H]21 | 1.42 µM | 3.11 µM | 1.1 µM | 2.45 µM | 1.43 µM | 2.92 µM | 1.57 µM | 3.66 µM | 1.28 µM | 2.63 µM | – | – | 2.51 µM | 7.05 µM | 1.48 µM | 3.3 µM | 5.8 µM | 20.5 µM | 10.5 µM | 0.537 µM |
| O=C(Nc1c(Cl)cc([N+](=O)[O-])cc1Cl)C(=O)C1C(=O)NC(=S)NC1=O | – | > 100 µM | – | > 100 µM | – | > 100 µM | – | > 100 µM | – | > 100 µM | – | > 100 µM | – | > 100 µM | – | > 100 µM | – | > 100 µM | – | – |
